According to patent publication US4026888A, “Certain derivatives of particular 3-thiolated cephalosporins” (priority 1976, dated 1977):
≈ marks a conversion by molar mass, not a printed value.

How the values were obtained:
Water solubility = format: physicochemical; details: in water at 23° C., read-out: Water solubility
Stability of solids = format: physicochemical; details: solid, read-out: Loss of bioactivity on storage at elevated temperatures
P. mirabilis A9900 [1] = assay: Oral PD50 in mice; format: in vivo; details: oral, mice treated at 1 and 3.5 hours post-challenge
S. pyogenes A9604 = assay: Oral PD50 in mice; format: in vivo; details: Streptococcus pyogenes, mice treated at 1 and 3.5 hours post-challenge
Method: (§1) Comparative Oral PD50 Values of
(§2) BL-S640 Derivatives in Mice
(§3) *Mice were treated at 1 and 3.5 hours post-challenge.

E. coli A15119 = assay: Oral PD50 in mice; format: in vivo; details: Escherichia coli, A15119, po, 3.5 h, oral; mice treated at 1 and 3.5 hours post-challenge; read-out: PD50
Method: as §1, §2, §3

K. pneumoniae A9977 [2] = assay: Oral PD50 in mice; format: in vivo; details: Klebsiella pneumoniae, A9977; oral; mice treated at 1 and 3.5 hours post-challenge; read-out: PD50
Method: as §1, §2, §3

P. mirabilis A9707 = assay: Oral PD50 in mice; format: in vivo; details: Proteus mirabilis, mice treated at 1 and 3.5 hours post-challenge
Method: as §1, §2, §3

P. mirabilis A9900 [3] = assay: IM PD50 in mice; format: in vivo; details: Proteus mirabilis
Excerpt: Comparative IM PD50 Values of
as §2

Str. pyogenes A9604 = assay: Antibiotic activity in nutrient broth (MIC); format: cell-based; details: Streptococcus pyogenes, A9604, inoculum 10^-3; 45% AAB + 5% serum + 50% broth; derivatives adjusted for BL-S640 content; read-out: MIC
Excerpt: (§4) Antibiotic Activity In Nutrient Broth
(§5) * 45% AAB+ 5% serum+ 50% broth listed above.
(§6) ** Dilution of overnight broth culture.
(§7) Antibiotic Spectrum Nutrient Broth
(§8) * 45% AAB + 5% serum + 50% broth
(§9) Antibiotic Spectrum in Nutrient Broth
(§10) *45% AAB + 5% serum + 50% broth listed above.

Str. pneumoniae A9585 = assay: Antibiotic activity in nutrient broth (MIC); format: cell-based; details: Streptococcus pneumoniae, A9585, inoculum 10^-3 dilution of overnight broth culture; 45% AAB + 5% serum + 50% broth; derivatives adjusted for BL-S640 content
Excerpt: as §4, §5, §6, §7, §8, §9, §10

Ser. marcescens A20019 = assay: Antibiotic activity in nutrient broth (MIC); format: cell-based; details: Serratia marcescens, A20019, inoculum 10^-4; derivatives adjusted for BL-S640 content
Excerpt: as §4, §6, §7, §9

Ent. cloacae A9656 = assay: Antibiotic activity in nutrient broth (MIC); format: cell-based; details: Enterobacter cloacae, A9656, inoculum 10^-4; derivatives adjusted for BL-S640 content
Excerpt: as §4, §6, §7, §9

Ps. aeruginosa A9843A = assay: Antibiotic activity in nutrient broth (MIC); format: cell-based; details: Pseudomonas aeruginosa
Excerpt: as §4, §6, §7, §9

Ent. cloacae A9657 = assay: Antibiotic activity in nutrient broth (MIC); format: cell-based; details: Enterobacter cloacae, A9657, inoculum 10^-4; derivatives adjusted for BL-S640 content; read-out: MIC
Excerpt: as §4, §6, §7, §9

[4] = system: S. aureus Meth-Res A15097; assay: Antibiotic activity in nutrient broth (MIC); format: cell-based; details: Staphylococcus aureus
Excerpt: as §4, §6, §7, §9

Pr. mirabilis A9900 = assay: Antibiotic activity in nutrient broth (MIC); format: cell-based; details: Proteus mirabilis, inoculum 10^-4, derivatives adjusted for BL-S640 content
Excerpt: as §4, §6, §7, §9

Pr. morganii A15153 = assay: Antibiotic activity in nutrient broth (MIC); format: cell-based; details: Morganella morganii, A15153
Excerpt: as §4, §6, §7, §9

S. aureus BX1633 A9606 = assay: Antibiotic activity in nutrient broth (MIC); format: cell-based; details: Staphylococcus aureus, derivatives adjusted for BL-S640 content
Excerpt: as §4, §6, §7, §9

S. aureus Smith A9537 = assay: Antibiotic activity in nutrient broth (MIC); format: cell-based; details: Staphylococcus aureus, SMITHA9537, inoculum 10^-4, derivatives adjusted for BL-S640 content
Excerpt: as §4, §6, §7, §9

E. coli A9675 = assay: Antibiotic activity in nutrient broth (MIC); format: cell-based; details: Escherichia coli, A9675
Excerpt: as §4, §6, §7, §9

Ent. cloacae A9659 = assay: Antibiotic activity in nutrient broth (MIC); format: cell-based; details: Enterobacter cloacae, A9659
Excerpt: as §4, §6, §7, §9

K. pneumoniae A15130 = assay: Antibiotic activity in nutrient broth (MIC); format: cell-based; details: Klebsiella pneumoniae, A15130
Excerpt: as §4, §6, §7, §9

E. coli Juhl A15119 = assay: Antibiotic activity in nutrient broth (MIC); format: cell-based; details: Escherichia coli, JUHLA15119
Excerpt: as §4, §6, §7, §9

K. pneumoniae A9977 [5] = assay: Antibiotic activity in nutrient broth (MIC); format: cell-based; details: Klebsiella pneumoniae
Excerpt: as §4, §6, §7, §9

Sal. enteritidis A9531 = assay: Antibiotic activity in nutrient broth (MIC); format: cell-based; details: Salmonella enterica, ENTERITIDIS, inoculum 10^-4; derivatives adjusted for BL-S640 content; read-out: MIC
Excerpt: as §4, §6, §7, §9

N[C@@H](C(=O)N[C@@H]1C(=O)N2C(C(=O)O)=C(CSc3c[nH]nn3)CS[C@H]12)c1ccc(O)cc1 [7-[D-α-amino-α-(p-hydroxyphenyl)acetamido]-3-(1,2,3-triazol-5-ylthiomethyl)-3-cephem-4-carboxylic acid propylene glycol solvate]
solubility (Water solubility): ~10000 µg/mL | degraded at 720 h (Stability of solids; 56° C., 1 month): < 10% | degraded at 24 h (Stability of solids; 100° C., 24 hours): < 6% | degraded at 48 h (Stability of solids; 100° C., 48 hours): < 12%

CC1=C(C(=O)O)N2C(=O)[C@@H](NC(=O)[C@H](N)c3ccccc3)[C@H]2SC1 [Cephalexin, reference compound]
ED50 (P. mirabilis A9900 [1]; Proteus mirabilis, A9900, po, 3.5 h, read-out: PD50): 66 mg/kg | PD50 (P. mirabilis A9900 [1]): 55 mg./kg./treatment | ED50 (S. pyogenes A9604): 11 mg/kg | ED50 (E. coli A15119): 13 mg/kg | ED50 (K. pneumoniae A9977 [2]): 43 mg/kg | ED50 (P. mirabilis A9707): 50 mg/kg | ED50 (P. mirabilis A9900 [3]): 50 mg/kg

CC(=O)OCC1=C(C(=O)O)N2C(=O)[C@@H](NC(=O)Cc3cccs3)[C@H]2SC1 [Cephalothin, reference compound]
MIC (Str. pyogenes A9604): 0.03 µg/mL | MIC (Str. pneumoniae A9585): 0.03 µg/mL | MIC (Ser. marcescens A20019): > 125 µg/mL | MIC (Ent. cloacae A9656): > 125 µg/mL | MIC (Ps. aeruginosa A9843A): > 125 µg/mL | MIC (Ent. cloacae A9657): 8 µg/mL (≈ 20.2 µM) | MIC [4]: 1 to 16 µg/mL (≈ 2.52 to 40.4 µM) | MIC (Pr. mirabilis A9900): 1 µg/mL (≈ 2.52 µM) | MIC (Pr. morganii A15153): > 125 µg/mL | MIC (S. aureus BX1633 A9606; BX1633A9606, inoculum 10^-2): 0.25 µg/mL (≈ 0.631 µM) | MIC (S. aureus BX1633 A9606; BX1633A9606, inoculum 10^-3): 0.13 µg/mL (≈ 0.328 µM) | MIC (S. aureus Smith A9537; + 50% serum): 0.5 µg/mL | MIC (S. aureus Smith A9537; nutrient broth): 0.13 µg/mL (≈ 0.328 µM) | MIC (E. coli A9675): 32 µg/mL (≈ 80.7 µM) | MIC (Ent. cloacae A9659): > 125 µg/mL | MIC (K. pneumoniae A15130): 32 µg/mL (≈ 80.7 µM) | MIC (E. coli Juhl A15119): 16 µg/mL (≈ 40.4 µM) | MIC (K. pneumoniae A9977 [5]): 1 µg/mL (≈ 2.52 µM) | MIC (Sal. enteritidis A9531): 0.25 µg/mL (≈ 0.631 µM)
